We go through 4 compounds from patent publication US20240174690A1, “ANNULATED 2-AMINO-3-CYANO THIOPHENES AND DERIVATIVES FOR THE TREATMENT OF CANCER” (BOEHRINGER INGELHEIM INTERNATIONAL GMBH, priority 2021, published 2024).

Converted amounts (≈) assume the structure as drawn. Read-outs that look alike come from different tables or passages of the source.

As a reminder, the IC50 is the point on the concentration scale where inhibition reaches its midpoint. Broadly, the solubility is how much of the substance goes into solution per volume.

The subject of data set [1] is KRAS G12C-dependent Ba/F3 cells. The experiment in a line: Ba/F3 proliferation assay, KRAS G12C. The class given is cell-based. To be noted: Mus musculus, BaF3, 72 h, AlamarBlue. The protocol:
(§1) Plasmids containing KRASG12 mutants (i.e. […], G12C, G12V) are obtained from GeneScript. To generate KRASG12-dependent Ba/F3 models, Ba/F3 cells are transduced with retroviruses containing vectors that harbor KRASG12 isoforms. Platinum-E cells (Cell Biolabs) are used for retrovirus packaging. Retrovirus is added to Ba/F3 cells. To ensure infection, 4 μg/mL polybrene is added and cells are spinfected. […] Cells with an infection efficiency of 10% to 20% are further cultivated and puromycin selection with 1 μg/mL is initiated. As a control, parental Ba/F3 cells are used to show selection status. Selection is considered successful when parental Ba/F3 cells cultures died. To evaluate the transforming potential of KRASG12 mutations, the growth medium is no longer supplemented with IL-3. Ba/F3 cells harboring the empty vector are used as a control. Approximately ten days before conducting the experiments, puromycin is left out.
(§2) Compounds are added using an Access Labcyte Workstation with a Labcyte Echo 550 or 555 accoustic dispenser. All treatments are performed in technical duplicates. […] AlamarBlue™ (ThermoFisher), a viability stain, is added and fluorescence measured in the PerkinElmer Envision HTS Multilabel Reader. The raw data are imported into and analyzed with the Boehringer Ingelheim proprietary software MegaLab (curve fitting based on the program PRISM, GraphPad Inc.).

The target of another data set is KRAS (G12C)::SOS1 (Homo sapiens (Human), UniProt P01116, C118S/C51S/C80L/G12C). Put plainly: KRAS::SOS1 AlphaScreen binding assay, KRAS G12C. From the text:
(§3) This assay can be used to examine the potency with which compounds according to the invention binding to (mutated) KRAS inhibit the protein-protein interaction between SOS1 and (mutated) KRAS e.g., KRAS WT, KRAS G12C, KRAS G12D, KRAS G12V, KRAS G13D. […] Low IC50 values in this assay setting are indicative of strong inhibition of protein-protein interaction between SOS1 and KRAS:
(§4) These assays measure the inhibitory effect of compounds on KRAS mutant protein-protein interactions using the Alpha Screen technology by Perkin Elmer.
(§5) The following (mutant) enzyme forms of KRAS and interacting proteins are used in these assays at the given concentrations: • KRAS (G12D) 1-169, N-terminal 6His-tag, C-terminal avi-tag (Xtal BioStructures, Inc.); final assay concentration 10 nM and SOS1 564-1049, N-terminal 229 GST-tag, TEV cleavage site (Viva Biotech Ltd); final assay concentration 5 nM; • KRAS (G12C) 1-169, N-terminal 6His-tag for purification, cleaved off, C-terminal avi-tag, biotinylated, mutations: C51S, C80L, C118S (in house); final assay concentration 7.5 nM and SOS1 564-1049, N-terminal 229 GST-tag, TEV cleavage site (Viva Biotech Ltd); final assay concentration 5 nM; • KRAS (G12V) 1-169, N-terminal 6His-tag for purification, cleaved off, C-terminal avi-tag, biotinylated, TEV cleavage site, mutation: C118S, GDP loaded (in house); final assay concentration 10 nM and SOS1 564-1049, N-terminal 229 GST-tag, TEV cleavage site (Viva Biotech Ltd); final assay concentration 10 nM; • KRAS (G13D) 1-169, N-terminal 6His-tag for purification, cleaved off, C-terminal avi-tag, biotinylated, TEV cleavage site, mutation: C118S, GDP loaded (in house); final assay concentration 10 nM and SOS1 564-1049, N-terminal 229 GST-tag, TEV cleavage site (Viva Biotech Ltd); final assay concentration 10 nM; • KRAS (WT) 1-169, N-terminal 6His-tag for purification, cleaved off, C-terminal avi-tag, biotinylated, TEV cleavage site, mutation: C118S, GDP loaded (in house); final assay concentration 10 nM and SOS1 564-1049, N-terminal 229 GST-tag, TEV cleavage site (Viva Biotech Ltd); final assay concentration 10 nM.
(§6) Test compounds dissolved in DMSO are dispensed onto assay plates (Proxiplate 384 PLUS, white, PerkinElmer; 6008289) using an Access Labcyte Workstation with the Labcyte Echo 55×. For the chosen highest assay concentration of 100 μM, 150 nL of compound solution are transferred from a 10 mM DMSO compound stock solution. A series of eleven fivefold dilutions per compound are transferred to the assay plate, compound dilutions are tested in duplicates. DMSO are added as backfill to a total volume of 150 nL.
(§7) The assays run on a fully automated robotic system in a darkened room below 100 Lux. To 150 nl of compound dilution 10 μl of a mix including KRAS mutant protein, SOS1 (final assay concentrations see above) and GDP nucleotide (Sigma G7127; final assay concentration 10 μM) in assay buffer (1×PBS, 0.1% BSA, 0.05% Tween 20) are added into columns 1-24.
(§8) After 30 minutes incubation time 5 μl of Alpha Screen bead mix in assay buffer are added into columns 1-23. Bead mix consists of AlphaLISA Glutathione Acceptor Beads (PerkinElmer, Cat No AL109) and AlphaScreen Streptavidin Donor Beads (PerkinElmer Cat No 6760002) in assay buffer at a final assay concentration of 10 μg/ml each.
(§9) Plates are kept at room temperature in a darkened incubator. After an additional 60 minutes incubation time the signal is measured in a PerkinElmer Envision HTS Multilabel Reader using the AlphaScreen specs from PerkinElmer.
(§10) Each plate contains up to 16 wells of a negative control depending on the dilution procedure (platewise or serial) (DMSO instead of test compound; with KRAS mutant::SOS1 GDP mix and bead mix; column 23) and 16 wells of a positive control (DMSO instead of test compound; with KRAS mutant::SOS1 GDP mix w/o bead mix; column 24).
(§11) As internal control known inhibitors of KRAS mutant::SOS1 interaction can be measured on each compound plate. […]

The target in the next data set is KRAS (G12D)::SOS1 (Homo sapiens (Human), UniProt P01116, G12D). Put plainly: KRAS::SOS1 AlphaScreen binding assay, KRAS G12D.
Excerpt: as §3, §4, §5, §6, §7, §8, §9, §10, §11
(Bead proximity is the source of the signal in Alpha formats.)

Data set [2] can be described thus: Metabolic (microsomal) stability assay, human liver microsomes (HLM). To be noted: predicted clearance as percent of liver blood flow, 1 μM. In kind it is in vitro ADME. The protocol:
The metabolic degradation of the test compound is assayed at 37° C. with pooled liver microsomes (mouse (MLM), rat (RLM) or human (HLM)). The final incubation volume of 48 μL pertime point contains TRIS buffer (pH 7.5; 0.1 M), magnesium chloride (6.5 mM), microsomal protein (0.5 mg/mL for mouse/rat, 1 mg/mL for human specimens) and the test compound at a final concentration of 1 μM. Following a short preincubation period at 37° C., the reactions are initiated by addition of 12 μL beta-nicotinamide adenine dinucleotide phosphate, reduced form (NADPH, 10 mM) and terminated by transferring an aliquot into solvent after different time points (0, 5, 15, 30, 60 min). Additionally, the NADPH-independent degradation is monitored in incubations without NADPH, terminated at the last time point by addition of acetonitrile. The quenched incubations are pelleted by centrifugation (4,000 rpm, 15 min). An aliquot of the supernatant is assayed by LC-MS/MS to quantify the concentration of parent compound in the individual samples.
In vitro intrinsic clearance (CLint, in vitro) is calculated from the time course of the disappearance of the test drug during the microsomal incubation. Each plot is fitted to the first-order elimination rate constant as C(t)═C0*exp(−ke*t), where C(t) and C0 are the concentration of unchanged test drug at incubation time t and that at preincubation and ke is the disappearance rate constant of the unchanged drug. Subsequently, CLint in vitro (μL min^−1·amount protein) values are converted to predicted CLint,in vivo (mL min^−1 kg^−1) from incubation parameters according to the equation CLint, in vivo=CLint, in vitro×(incubation volume (ml)/amount protein (mg))×(amount protein (mg)/g liver tissue)×(liver weight/body wt.).
For better across species comparison the predicted clearance is expressed as percent of the liver blood flow [% QH] (mL min^−1·kg^−1) in the individual species. In general, high stability (corresponding to low % QH) of the compounds across species is desired.

The nature of data set [3]: Solubility measurement (DMSO solution method), McIlvaine buffer pH 4.5 or 6.8. In kind it is physicochemical. The note with it: aqueous buffer, kinetic from dmso stock, DMSO stock diluted to 250 μM, 24 h shaking at ambient temperature. The protocol:
The DMSO solution is diluted with an aqueous medium (Mcllvaine buffer with pH=4.5 or 6.8) to a final concentration of 250 μM. After 24 h of shaking at ambient temperature a potentially formed precipitate is removed by filtration. The concentration of the test compound in the filtrate is determined by LC-UV methods by calibrating the signal to the signal of a reference solution with complete dissolution of the test compound in acetonitrile/water (1:1) with known concentration.

Data set [4] relates to KRAS G12V-dependent Ba/F3 cells. Put plainly: Ba/F3 proliferation assay, KRAS G12V.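 Also: proliferation IC50 in KRAS G12V-dependent Ba/F3 cells read by AlamarBlue.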 In kind it is cell-based. The note with it: Mus musculus, BaF3, 72 h, AlamarBlue. The protocol:
as §1, §2
(In general: Resazurin is reduced to fluorescent resorufin, in cell work by metabolically active cells.)

Data set [5] in a line: Plasma protein binding assay (PPB), equilibrium dialysis, 10% FCS in PBS. In kind it is in vitro ADME. The note with it: bovine, read-out: PPB 10% FCS (% fu). The protocol: Binding of test compounds to plasma was determined using equilibrium dialysis (ED) and quantitative mass spectrometry interfaced with liquid chromatography (LC-MS). In brief, ED was performed with dialysis devices consisting of two chambers separated by a semipermeable membrane with a molecular weight cut-off of 5-10 kg/mol. One chamber was filled with 10% FCS in PBS containing 1-10 μmol/L test compound and the other chamber was filled with phosphate-buffer saline (PBS) with or without dextran. The dialysis chamber was incubated for 3-5 hours at 37° C. After incubation, protein was precipitated from aliquots of each chamber and the concentration of test compound in the supernatant of the plasma-containing compartment (Cserum) and of the buffer-containing compartment (Cbuffer) was determined by LC-MS. The fraction of unbound test compound (not bound to plasma) (fu) was calculated according to the following equation: […]
In general terms: In equilibrium dialysis free small molecules cross a membrane that holds back macromolecules.

The subject of another data set is NCI-H358 cells. Put plainly: NCI-H358 CTG proliferation assay (120 h) (NSCLC, G12C). In kind it is cell-based, human. To be noted: Homo sapiens, assay 2, CTG, read-out: H358 (assay 2) IC50. The protocol: NCI-H358 CTG Proliferation Assay (120 h) (NSCLC, G12C)
NCI-H358 cells (ATCC No. CRL-5807) are dispensed into white bottom opaque 96 well plates (Perkin Elmer cat no. 5680) at a density of 2000 cells per well in 100 μL RPMI-1640 ATCC-Formulation (Gibco #A10491)+10% FCS (fetal calf serum) (assay 1) or into black 384-well plates, flat and clear bottom (Greiner, PNr. 781091) at a density of 200 cells per well in 60 μl RPMI-1640 ATCC-Formulation (Gibco #A10491)+10% FCS (fetal calf serum) (assay 2). […] Compounds (10 mM stock in DMSO) are added at logarithmic dose series using the HP Digital Dispenser D300 (Tecan) (assay 1) or the ECHO acoustic liquid handler system (Beckman Coulter) (assay 2), normalizing for added DMSO and including DMSO controls. For the TO time point measurement, untreated cells are analyzed at the time of compound addition. Plates are incubated for 120 h, and cell viability is measured using CellTiter-Glo luminescent cell viability reagent (Promega product code G7570). Viability (stated as percent of control) is defined as relative luminescence units RLU of each well divided by the RLU of cells in DMSO controls. IC50 values are determined from viability measurements by non-linear regression using a four parameter model.

In data set [6] the test system is KRAS G12D-dependent Ba/F3 cells. Put plainly: Ba/F3 proliferation assay, KRAS G12D. The class given is cell-based. To be noted: Mus musculus, BaF3, 72 h, AlamarBlue. The protocol: as §1, §2

Chain of KRAS (G12D)::SOS1 (P01116 other isoform, or with tags, fused parts or gaps G12D): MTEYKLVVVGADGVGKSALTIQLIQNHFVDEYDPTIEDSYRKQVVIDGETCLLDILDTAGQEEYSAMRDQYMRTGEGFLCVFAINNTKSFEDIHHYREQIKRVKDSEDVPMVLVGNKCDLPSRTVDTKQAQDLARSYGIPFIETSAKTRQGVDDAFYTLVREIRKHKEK
Chain of KRAS (G12C)::SOS1 (P01116 other isoform, or with tags, fused parts or gaps G12C/C51S/C80L/C118S): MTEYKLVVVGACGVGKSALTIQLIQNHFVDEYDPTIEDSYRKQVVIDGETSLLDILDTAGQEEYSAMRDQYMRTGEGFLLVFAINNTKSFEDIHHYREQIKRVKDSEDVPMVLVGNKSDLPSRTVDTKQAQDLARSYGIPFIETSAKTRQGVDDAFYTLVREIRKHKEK

For `C[C@H]1CN(C)CCCN1c1nc(-c2noc3c2CCC[C@@]32CCCc3sc(N)c(C#N)c32)cc(N2CCN(C)C3(CC3)C2)n1` [II-172], the IC50 in [1] turned out to be 0.83 µM; on KRAS (G12C)::SOS1, 0.888 µM; on KRAS (G12D)::SOS1, 0.036 µM. For the same compound, in [2], the “HLM QH” value was 51%.

For `Cc1cc(-c2onc3c2CCC[C@@]32CCCc3sc(N)c(C#N)c32)nc(N2CCCNC[C@@H]2C)n1` [I-35], the IC50 turned out to be 0.289 µM in [1], 0.032 µM at KRAS (G12C)::SOS1 and 0.021 µM on KRAS (G12D)::SOS1. Further, the solubility at 24 h in data set [3] (McIlvaine buffer pH 4.5, read-out: solubility pH 4.5) is 3 µg/mL (≈ 6.13 µM); in data set [3] (McIlvaine buffer pH 6.8, read-out: solubility pH 6.8), less than 1 µg/mL. The “HLM QH” value in [2] is 32%.

For the compound `C[C@H](Oc1cc(-n2ccnn2)nc(-c2noc3c2CCC[C@@]32CCCc3sc(N)c(C#N)c32)n1)[C@@H]1CCCN1C` [II-108], the IC50 in [1] is 0.015 µM; in [4], 0.008 µM; with NCI-H358 cells, 0.134 µM; in [6] it was 0.054 µM. Moreover, the fraction unbound in [5] was determined as 0.42. For the same compound, the “HLM QH” value in data set [2] is reported as 59%.

In the case of `C[C@H](Oc1cc(N2CCN3CCC[C@]3(C)C2)nc(-c2noc3c2CCC[C@@]32CCCc3sc(N)c(C#N)c32)n1)[C@@H]1CCCN1C` [II-52], the half-maximal inhibitory concentration (IC50) amounted to 0.403 µM in data set [1], 0.401 µM in [4], 1.72 µM in the data set on NCI-H358 cells and 0.072 µM in data set [6]. Further, in data set [5], the fraction unbound was found to be 0.48. For the same compound, the “HLM QH” value in data set [2] is less than 24%.
